29 molecules from patent publication US8134004B2, “Substituted N-bicyclicalkyl bicycliccarboxyamide compounds” (Pfizer Inc., priority 2006, dated 2012) can be followed below.

Counter-ions that a name gives are not always drawn.

The target in this assay is human VR1 (Homo sapiens, UniProt Q8NER1). Nature of the assay: Human VR1 antagonist assay (Ca2+ imaging). In kind it is cell-based. The conditions noted are these: Ca2+ imaging assay using human VR1 highly expressing cells, fura-2/AM; agonist stimulation (capsaicin 300 nM or acid pH 5.8), not given. The source says:
Human VR1 Antagonist Assay
VR1 antagonistic activity can be determined by the Ca^2+ imaging assay using human VR1 highly expressing cells. The cells that highly express human VR1 receptors are obtainable from several different conventional methods. The one standard method is cloning from human Dorsal Root Ganglion (DRG) or kidney according to the methods such as described in the journal article; Nature, 389, pp 816-824, 1997. Alternatively VR1 receptors highly expressing human keratinocytes are also known and published in the journal article (Biochemical and Biophysical Research Communications, 291, pp 124-129, 2002). […] Furthermore, the method to up regulate human VR1 gene, which is usually a silent gene or don't produce detectable level of VR1 receptors, is also available to obtain propriety cells. Such genetic modification method was described in detail; Nat. Biotechnol., 19, pp 440-445, 2001.
The cells that express human VR1 receptors were maintained in culture flask at 37° C. in an environment containing 5% CO2 until use in the assay. The intracellular Ca^2+ imaging assay to determine VR1 antagonistic activities were done by following procedures.
The culture medium was removed from the flask and fura-2/AM fluorescent calcium indicator was added to the flask at a concentration of 5 μM in the medium. The flask was placed in CO2 incubator and incubated for 1 hour. Then the cells expressing the human VR1 receptors were detached from the flask follow by washing with phosphate buffer saline, PBS(−) and re-suspended in assay buffer. The 80 μl of aliquot of cell suspension (3.75×10^5 cells/ml) was added to the assay plate and the cells were spun down by centrifuge (950 rpm, 20° C., 3 minutes).
The compounds of the examples were tested in the Human VR1 antagonist assay described above.
The capsaicin-induced changes in the intracellular calcium concentration were monitored using FDSS 6000 (Hamamatsu Photonics, Japan), a fluorometric imaging system. The cell suspension in Krebs-Ringer HEPES (KRH) buffer (115 mM NaCl, 5.4 mM KCl, 1 mM MgSO4, 1.8 mM CaCl2, 11 mM D-Glucose, 25 mM HEPES, 0.96 mM Na2HPO4, pH 7.3) were pre-incubated with varying concentrations of the test compounds or KRH buffer (buffer control) for 15 minutes at room temperature under the dark condition. Then capsaicin solution, which gives 300 nM in assay mixture, was automatically added to the assay plate by the FDSS 6000.
The Acid-induced changes in the intracellular calcium concentration were monitored using FDSS 6000 (Hamamatsu Photonics, Japan), a fluorometric imaging system. The cell suspension in resting buffer (HBSS supplemented with 10 mM HEPES, pH 7.4) were pre-incubated with varying concentrations of the test compounds or resting buffer (buffer control) for 15 minutes at room temperature under the dark condition. The cells were automatically added the stimulating solution (HBSS supplemented with MES, final assay buffer pH5.8) by the FDSS 6000.
The monitoring of the changes in the fluorescence signals (λex=340 nm/380 nm, λem=510-520 nm) was initiated at 1 minute prior to the addition of capsaicin solution or acidic buffer and continued for 5 minute.

Chain of human VR1 (Q8NER1 whole entry): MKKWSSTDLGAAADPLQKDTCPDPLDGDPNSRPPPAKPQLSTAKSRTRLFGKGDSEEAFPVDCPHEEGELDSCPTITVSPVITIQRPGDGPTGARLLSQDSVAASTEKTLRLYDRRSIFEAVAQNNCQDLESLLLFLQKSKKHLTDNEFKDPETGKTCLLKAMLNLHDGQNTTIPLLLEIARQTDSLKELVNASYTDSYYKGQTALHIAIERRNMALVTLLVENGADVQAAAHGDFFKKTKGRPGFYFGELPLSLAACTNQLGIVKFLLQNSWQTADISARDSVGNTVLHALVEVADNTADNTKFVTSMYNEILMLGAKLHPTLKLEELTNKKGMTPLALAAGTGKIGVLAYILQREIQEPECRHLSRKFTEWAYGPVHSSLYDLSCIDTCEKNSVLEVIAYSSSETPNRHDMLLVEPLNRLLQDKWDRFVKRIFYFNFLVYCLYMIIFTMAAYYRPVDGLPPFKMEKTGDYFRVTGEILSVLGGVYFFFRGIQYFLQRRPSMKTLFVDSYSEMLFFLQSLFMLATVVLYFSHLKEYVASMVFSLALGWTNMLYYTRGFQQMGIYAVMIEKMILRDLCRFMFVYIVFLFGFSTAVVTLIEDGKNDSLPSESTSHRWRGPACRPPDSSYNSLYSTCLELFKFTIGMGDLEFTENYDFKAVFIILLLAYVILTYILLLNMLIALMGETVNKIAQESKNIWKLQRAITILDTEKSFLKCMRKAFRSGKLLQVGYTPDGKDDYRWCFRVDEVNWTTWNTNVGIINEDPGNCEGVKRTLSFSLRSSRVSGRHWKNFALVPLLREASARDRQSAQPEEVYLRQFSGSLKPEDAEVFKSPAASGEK

Consider `C[C@@H](NC(=O)c1ccc2cc(C(C)(C)C)ccc2n1)c1ccnc2ccccc12` (single isomer, unassigned) [Example B7, 6-tert-butyl-N-(1-quinolin-4-ylethyl)quinoline-2-carboxamide], for which the IC50 (in general, the point on the concentration scale where inhibition reaches its midpoint) worked out at 0.132 µM.
`C[C@@H](NC(=O)c1ccc2nc(C(C)(C)C(F)(F)F)ccc2c1)c1ccnc2ccccc12` (single isomer, unassigned) [Example C13] registered a half-maximal inhibitory concentration (IC50) of 0.0498 µM. This IC50 lies about 2.7-fold lower than the previous one.
As for `C[C@@H](NC(=O)c1ccc2cc(C(C)(C)C)ccc2c1)c1ccc2nn[nH]c2c1` [Example A1, N-[(1R)-1-(1H-1,2,3-benzotriazol-6-yl)ethyl]-6-tert-butyl-2-naphthamide], the figure is 0.0179 µM; as for `CC(C)(C)c1ccc2cc(C(=O)NCc3ccnc4ccccc34)ccc2c1` [Example A2], 0.017 µM.
As for `CC(C)(C)c1ccc2cc(C(=O)NCc3ccc4c(c3)CN=N4)ccc2c1` [Example A3, 6-tert-butyl-N-(3H-indazol-5-ylmethyl)-2-naphthamide], the figure is 0.0616 µM.
Then `CC(NC(=O)c1ccc2cc(C(C)(C)C)ccc2c1)c1ccc2c(c1)CC(=O)N2` (centres unmarked) [Example A4, 6-tert-butyl-N-[1-(2-oxo-2,3-dihydro-1H-indol-5-yl)ethyl]-2-naphthamide], with 0.0857 µM; and `CC(NC(=O)c1ccc2cc(C(C)(C)C)ccc2c1)c1ccc2[nH]ncc2c1` (centres unmarked) [Example A5, 6-tert-butyl-N-[1-1H-indazole-5-ylethyl]-2-naphthamide], with 0.0164 µM; and `COC(C)(c1ccc2cc(C(=O)NCc3ccnc4ccccc34)ccc2c1)C(F)(F)F` (centres unmarked) [Example A6, N-(quinolin-4-ylmethyl)-6-(1,1,1-trifluoro-2-methoxypropan-2-yl)-2-naphthamide], with 0.052 µM.
Molecule `CC1(c2ccc3cc(C(=O)NCc4ccnc5ccccc45)ccc3c2)CC1` [Example A7, 6-(1-methylcyclopropyl)-N-(quinolin-4-ylmethyl)-2-naphthamide] yielded an IC50 of 0.14 µM.
With `O=C(NCc1ccnc2ccccc12)c1ccc2cc(C3CC3)ccc2c1` [Example A8, 6-cyclopropyl-N-(quinolin-4-ylmethyl)-2-naphthamide], the IC50 amounted to 0.41 µM.
On to `C[C@@H](NC(=O)c1ccc2cc(C(C)(O)C(F)(F)F)ccc2c1)c1ccnc2ccccc12` (stereo partly drawn) [Example A9, N-[(1R)-1-quinolin-4-ylethyl]-6-(2,2,2-trifluoro-1-hydroxy-1-methylethyl)-2-naphthamide], for which the IC50 was determined as 0.382 µM.
As for `C[C@@H](NC(=O)c1ccc2cc(C(C)(C)C)ccc2n1)c1ccc2[nH]nnc2c1` [Example B1, N-[(1R)-1-(1H-1,2,3-benzotriazol-6-yl)ethyl]-6-tert-butylquinoline-2-carboxamide], the figure is 0.00945 µM; as for `CC[C@@H](NC(=O)c1ccc2cc(C(C)(C)C)ccc2n1)c1ccc2[nH]nnc2c1` [Example B2, N-[(1R)-1-(1H-1,2,3-benzotriazol-6-yl)propyl]-6-tert-butylquinoline-2-carboxamide], 0.158 µM; as for `CC(C)(C)c1ccc2nc(C(=O)NCc3ccnc4ccccc34)ccc2c1` [Example B3, 6-tert-butyl-N-(quinolin-4-ylmethyl)quinoline-2-carboxamide], 0.117 µM.
With `CC(NC(=O)c1ccc2cc(C(C)(C)C)ccc2n1)c1ccnc2ccccc12` (centres unmarked) [Example B5, 6-tert-butyl-N-(1-quinolin-4-ylethyl)quinoline-2-carboxamide hydrochloride], the IC50 was 0.204 µM.
Then `CC(C)(C)c1ccc2nc(C(=O)NCc3ccc4[nH]nnc4c3)ccc2c1` [Example B6, N-(1H-1,2,3-benzotriazol-5-ylmethyl)-6-tert-butylquinoline-2-carboxamide], with 0.0187 µM; and `C[C@@H](NC(=O)c1ccc2nc(C(C)(C)C)ccc2c1)c1ccc2[nH]nnc2c1` [Example C1, N-[(1R)-1-(1H-1,2,3-benzotriazol-6-yl)ethyl]-2-tert-butylquinoline-6-carboxamide], with 0.0392 µM; and `C[C@@H](NC(=O)c1ccc2nc(C(C)(C)C)ccc2c1)c1ccc2[nH]c(=O)[nH]c2c1` [Example C2, 2-tert-butyl-N-[(1R)-1-(2-oxo-2,3-dihydro-1H-benzimidazol-6-yl)ethyl]quinoline-6-carboxamide], with 0.142 µM.
Then `CC(NC(=O)c1ccc2nc(C(C)(C)C)ccc2c1)c1ccc2c(c1)CC(=O)N2` (centres unmarked) [Example C3, 2-tert-butyl-N-[1-(2-oxo-2,3-dihydro-1H-indol-5-yl)ethyl] quinoline-6-carboxamide], with 0.242 µM; and `CC(NC(=O)c1ccc2nc(C(C)(C)C(F)(F)F)ccc2c1)c1ccc2[nH]ncc2c1` (centres unmarked) [Example C4, N-[1-1H-indazole-5-ylethyl]-2-(2,2,2-trifluoro-1,1-dimethylethyl)quinoline-6-carboxamide], with 0.023 µM; and `CC(C)(c1ccc2cc(C(=O)NCc3ccnc4ccccc34)ccc2n1)C(F)(F)F` [Example C5, N-(quinolin-4-ylmethyl)-2-(2,2,2-trifluoro-1,1-dimethylethyl) quinoline-6-carboxamide], with 0.072 µM.
The molecule `CC(C)(c1ccc2cc(C(=O)NCc3cccc4cnccc34)ccc2n1)C(F)(F)F` [Example C7, N-(isoquinolin-5-ylmethyl)-2-(2,2,2-trifluoro-1,1-dimethylethyl) quinoline-6-carboxamide] displayed a concentration for half-maximal inhibition (IC50) of 0.027 µM.
As for `Cc1cc(CNC(=O)c2ccc3nc(C(C)(C)C(F)(F)F)ccc3c2)c2ccccc2n1` [Example C8, N-[(2-methylquinolin-4-yl)methyl]-2-(2,2,2-trifluoro-1,1-dimethylethyl)quinoline-6-carboxamide], the figure is 0.351 µM; as for `CC(NC(=O)c1ccc2nc(C(C)(C)C(F)(F)F)ccc2c1)c1ccc2[nH]c(=O)[nH]c2c1` (centres unmarked) [Example C9, N-[1-(2-oxo-2,3-dihydro-1H-benzimidazol-5-yl)ethyl]-2-(2,2,2-trifluoro-1,1-dimethylethyl)quinoline-6-carboxamide], 0.151 µM.
As for `CC(NC(=O)c1ccc2nc(C(C)(C)C(F)(F)F)ccc2c1)c1ccc2c(c1)CC(=O)N2` (centres unmarked) [Example C10, N-[1-(2-oxo-2,3-dihydro-1H-indol-5-yl)ethyl]-2-(2,2,2-trifluoro-1,1-dimethylethyl)quinoline-6-carboxamide], the figure is 0.274 µM.
Then `CC(C)(c1ccc2cc(C(=O)NCc3ccnc4ccc(F)cc34)ccc2n1)C(F)(F)F` [Example C11, N-[(6-fluoroquinolin-4-yl)methyl]-2-(2,2,2-trifluoro-1,1-dimethylethyl)quinoline-6-carboxamide], with 0.173 µM.
Molecule `CC(C)(c1ccc2cc(C(=O)NCc3ccnc4c(F)cc(F)cc34)ccc2n1)C(F)(F)F` [Example C12, N-[(6,8-difluoroquinolin-4-yl)methyl]-2-(2,2,2-trifluoro-1,1-dimethylethyl)quinoline-6-carboxamide] registered an IC50 of 0.266 µM.
`Cc1ccc2nccc(CNC(=O)c3ccc4nc(C(C)(C)C(F)(F)F)ccc4c3)c2c1` [Example C14, N-[(6-methylquinolin-4-yl)methyl]-2-(2,2,2-trifluoro-1,1-dimethylethyl)quinoline-6-carboxamide]: the IC50 was found to be 0.422 µM.
As for `C[C@@H](NC(=O)c1ccc2nc(C(C)(O)C(F)(F)F)ccc2c1)c1ccnc2ccccc12` (stereo partly drawn) [Example C15, N-[(1R)-1-quinolin-4-ylethyl]-2-(2,2,2-trifluoro-1-hydroxy-1-methylethyl)quinoline-6-carboxamide], the figure is 0.316 µM.
